Source: paper PMC11740271 (Annals of neurology, 2024)
Where “and” joins values, the source holds several entries; their conditions need not be identical. Equal entries are not always repeated. Where two headings read alike, the source gives them in different places.

Experiments:
[1] = test system: 6 Hz (44 mA) seizures; details: mice, i.p.; from literature ED50/TD50, ref as in Table S11; cited from earlier work
[2] = test system: TMEV-induced seizures; details: mice; doses as in Table S14; cited from earlier work
[3] = test system: GLT-1; test: GLT-1 expression in neuron-glia cultures; type: cell-based, rat; details: 14 DIV neuron-glia cultures, 72 h
[4] = test system: 6 Hz (44 mA) seizures; test: 6 Hz; type: in vivo, mice; details: Mus musculus, ip, 1 h, read-out: ED50, 6 Hz (44 mA)
[5] = test system: corneal kindled seizures; test: Corneal kindled mouse model; type: in vivo, mice; details: ip, read-out: ED50, CKM
[6] = test system: hippocampal paroxysmal discharges (HPDs); test: Intra-hippocampal kainate mouse; type: in vivo; details: male mice, 50 mg/kg i.p., 1 h post-drug, mean ± SEM
[7] = test system: motor function and coordination; test: Rotarod test in mice; type: in vivo; details: male mice (C57BL/6J), i.p., PT 0.5 h; 95% CI in parentheses
[8] = Minimal motor impairment; type: in vivo, rats; details: Sprague-Dawley, rat, in vivo, ip
[9] = test system: minimal motor impairment (ataxia); test: Minimal motor impairment; type: in vivo, rats; details: i.p.
[10] = test system: autonomic, neuromuscular, sensorimotor and behavioral functions; test: Modified Irwin test in rats; type: in vivo; details: male rats, i.p.
[11] = test system: GLT-1; test: GLT-1 expression in mouse hippocampus; type: in vivo; details: C57BL/6J mice
[12] = test system: GLT-1; test: GLT-1 expression in mouse cortex; type: in vivo; details: C57BL/6 mice
[13] = test system: EAAT1; details: cited from earlier work
[14] = test system: EAAT3; details: cited from earlier work
[15] = test system: corneal kindled seizures; details: mice, i.p.; from literature ED50/TD50, ref as in Table S11; cited from earlier work

Cc1ccsc1C(=CCCN1CCC[C@@H](C(=O)O)C1)c1sccc1C [Tiagabine]
PI, 6 Hz, 44 mA (reference ASMs) [1]: 6 | effect in the TMEV model [2]: significantly reduced seizure burden

CO/N=C(\C(=O)N[C@@H]1C(=O)N2C(C(=O)O)=C(CSc3nc(=O)c(=O)[nH]n3C)CS[C@H]12)c1csc(N)n1 [ceftriaxone, reference compound]
GLT-1 protein expression (Western blotting) ([3]; 1 mM): significantly increased

C[C@H](C(=O)NCc1ccccc1)N1C(=O)CCC1=O [(R)-AS-1, (R)-N-benzyl-2-(2,5-dioxopyrrolidin-1-yl)propanamide]
ED50 [4]: 65.9 mg/kg | ED50 ([5]; 1 h): 38.2 mg/kg | ED50 ([5]; […]): 40.5 mg/kg | HPD count as percent of baseline (peak effect) [6]: 52.81 ± 13.45% and ~ 50% | TD50, rotarod test [7]: 168.2 (117.4–242.0) mg/kg | TD50 at […] ([8]; female): > 500 mg/kg | TD50 at 0.5 h ([8]; male): 254 mg/kg | N/F with adverse effects, TOX (MMI) ([9]; female rats, 500 mg/kg, […]): 2/8 | abnormal gait, animals affected / tested ([9]; female rats, 500 mg/kg, […]): 3/8 | tremors, animals affected / tested ([9]; female rats, 500 mg/kg, […]): 6/8 | slight ataxia, share of rats ([9]; female rats, 500 mg/kg, at 0.5 h and 1 h): 12.5% | N/F with adverse effects, TOX (MMI) ([9]; male rats, 300 mg/kg, 1 h): 1/8 | N/F with adverse effects, TOX (MMI) ([9]; male rats, 300 mg/kg, […]): 1/8 | adverse events at later time points (Irwin test) ([10]; 300 mg/kg, 2, 4, and 24 h): no adverse events | staggering, share of rats (Irwin test) ([10]; 300 mg/kg, 0.5 h, 1/4): 25% | ataxia, share of rats (Irwin test) ([10]; 300 mg/kg, 0.5 h, 2/4): 50% | ataxia, share of rats (Irwin test) ([10]; 300 mg/kg, 1 h, 1/4): 25% | staggering, share of rats (Irwin test) ([10]; 300 mg/kg, 1 h, 2/4): 50% | anesthesia, share of rats (Irwin test) ([10]; 300 mg/kg, […], 2 rats out of 4): 50% | tolerability in the Irwin test ([10]; doses of 100, 150, and 250 mg/kg, all time points): very well tolerated | GLT-1 protein expression (Western blotting) ([3]; 100 nM and 100 μM): did not alter | GLT-1 expression in the hippocampus (qualitative confocal microscopy) ([11]; 100 mg/kg i.p. BID for 7 days): did not alter | GLT-1 protein expression in brain lysates (quantitative Western blot) ([12]; 100 mg/kg i.p. BID for 7 days): did not show any alteration | interaction with EAAT1 [13]: does not interact | interaction with EAAT3 [14]: does not interact

CCOC(=O)Nc1ccc(NCc2ccc(F)cc2)cc1N [Ezogabine]
PI, CKM (reference ASMs) [15]: 1.5

C=C(C)[C@@H]1CCC(C)=C[C@H]1c1c(O)cc(CCCCC)cc1O [Cannabidiol]
effect in the TMEV model [2]: effectively reduced TMEV-induced seizures

CN(C)CCC=C1c2ccccc2CCc2ccccc21 [amitriptyline, reference compound]
GLT-1 signal in the hippocampus (qualitative confocal microscopy) ([11]; 10 mg/kg i.p. QD for 7 days): strong increase | GLT-1 protein expression in brain lysates (quantitative Western blot) ([12]; 10 mg/kg i.p. for 7 days, P < 0.05): significant increase

COC[C@@H](NC(C)=O)C(=O)NCc1ccccc1 [Lacosamide]
effect in the TMEV model [2]: significantly reduced seizure burden

CC[C@@H](C(N)=O)N1CCCC1=O [Levetiracetam]
effect in the TMEV model [2]: significantly reduced seizure burden

Nc1nnc(-c2cccc(Cl)c2Cl)c(N)n1 [Lamotrigine]
PI, CKM (reference ASMs) [15]: 1.0 | effect in the TMEV model [2]: ineffective

NC(=O)N1c2ccccc2C=Cc2ccccc21 [Carbamazepine]
effect in the TMEV model [2]: ineffective

CCCC(CCC)C(=O)O [Valproate]
effect in the TMEV model [2]: significantly reduced seizure burden
